Laboratory results published in patent US11072581B2, “N-acyl-arylsulfonamide derivatives as aminoacyl-tRNA synthetase inhibitors” (Oxford Drug Design Limited, priority 2015, dated 2021).
Structures can show the parent of a compound that is named as a salt. Where two headings read alike, the source gives them in different places.

Tests used:
Format in all cases: biochemical
[1] = target: T1, SauIRS (isoleucyl-tRNA synthetase from Staphylococcus aureus) (Staphylococcus aureus, UniProt P41972); experiment: aaRS aminoacylation assay (ATP consumption), SauIRS; conditions: i.a. = inactive at a concentration below 50 uM
T1 construct: made in house; host or cells: Escherichia coli M15
T1 sequence (P41972 1-917): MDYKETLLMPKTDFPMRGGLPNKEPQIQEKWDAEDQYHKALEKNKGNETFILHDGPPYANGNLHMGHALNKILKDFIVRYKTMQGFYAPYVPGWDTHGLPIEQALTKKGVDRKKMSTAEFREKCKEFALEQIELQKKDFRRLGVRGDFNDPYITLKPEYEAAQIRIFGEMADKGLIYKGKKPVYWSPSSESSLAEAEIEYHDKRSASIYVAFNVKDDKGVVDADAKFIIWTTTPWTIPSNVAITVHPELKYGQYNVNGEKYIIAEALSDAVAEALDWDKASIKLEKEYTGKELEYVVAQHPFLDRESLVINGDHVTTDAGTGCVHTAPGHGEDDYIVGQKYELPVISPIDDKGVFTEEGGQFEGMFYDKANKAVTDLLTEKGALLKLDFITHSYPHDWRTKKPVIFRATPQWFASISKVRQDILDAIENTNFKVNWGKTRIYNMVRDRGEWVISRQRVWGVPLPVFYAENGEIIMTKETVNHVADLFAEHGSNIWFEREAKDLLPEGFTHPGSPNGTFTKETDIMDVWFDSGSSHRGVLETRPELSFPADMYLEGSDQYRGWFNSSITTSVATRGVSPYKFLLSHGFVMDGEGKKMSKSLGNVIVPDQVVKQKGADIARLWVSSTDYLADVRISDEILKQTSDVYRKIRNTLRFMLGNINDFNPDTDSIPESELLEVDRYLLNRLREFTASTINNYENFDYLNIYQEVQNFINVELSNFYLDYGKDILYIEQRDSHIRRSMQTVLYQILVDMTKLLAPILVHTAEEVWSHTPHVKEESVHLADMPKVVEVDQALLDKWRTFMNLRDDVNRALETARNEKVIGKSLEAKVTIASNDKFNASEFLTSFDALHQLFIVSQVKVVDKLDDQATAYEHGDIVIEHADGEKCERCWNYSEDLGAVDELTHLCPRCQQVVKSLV
Experimental: (§1) The compounds have been tested for antibacterial activity in vitro as aminoacyl-tRNA synthetases (aaRS) inhibitors following the following process.
(§2) Leucyl-, valyl- and isoleucyl-tRNA synthetases (LRS, VRS and IRS, respectively) from Escherichia coli (Eco) and Staphylococcus aureus (Sau).
(§3) Escherichia coli M15 cells transformed with plasmid pQE-60, or pQE-70, containing the open-reading frame sequence of one targeted aaRS were induced with 1 mM IPTG (Isopropyl β-D-1-thiogalactopyranoside) for 3 h at 37° C. Bacterial cells were harvested and lysed with 20 mM NaH2PO4 (pH 8.0), 200 mM NaCl, 10 mM imidazole and protease inhibitor cocktail (Roche). Pathogenic aaRS was purified by nickel affinity standard chromatography. Protein concentration was determined by spectrophotometry.
(§4) tRNA^Leu, tRNA^Val and tRNA^Ile from E. coli and S. aureus were transcribed in vitro for 4 h at 37° C. using T7 RNA polymerase. Transcription reaction contained 40 mM Tris-HCl (pH 8.0), 22 mM MgCl2, 1 mM spermidine, 5 mM DTT, 0.01% Triton X-100, 4 mM GTP, 4 mM ATP, 4 mM UTP, 4 mM CTP, 16 mM GMP, […] T7 RNA polymerase and 150 μg BstNI digested plasmid. Once finished, the reaction was applied on a 6% polyacrylamide-8 M urea denaturing gel to purify the transcribed tRNA and discard any impurities. Purified tRNA was quantified with Nanodrop 2000 (Thermo Scientific).
(§5) The aminoacylation reaction catalyzed by aminoacyl-tRNA synthetases (aaRS) takes place in two steps. In the first step, aaRS activates its cognate amino acid with ATP; and in the second step the activated amino acid is loaded to its corresponding tRNA. This reaction can be summarized as follows: ARS+aa+ATP=ARS-aa-AMP+PPi ARS-aa-AMP+tRNA=aa-tRNA+AMP+ARS [2] (ARS, Aminoacyl-tRNA synthetase; aa, amino acid; ARS-aa-AMP, enzyme-bound to aminoacyl-adenylate; aa-tRNA, aminoacyl-tRNA).
(§6) The activity of the pathogenic aaRSs was monitored by measuring the ATP consumption rate, since this consumption is directly proportional to the activity of the aaRS. If the tested compound, at a single point concentration of 50 μM, is inhibiting the aminoacylation reaction, there is a decrease in the ATP consumption, compared to the control reaction without compound, allowing the calculation of an inhibition ratio.
(§7) When the inhibition ratio for a given compound was above 80%, IC50 determination was performed with the same enzymatic assay (using the commercial kit Kinase RR from BioThema AB, Sweden) in the presence of serial dilutions of inhibitor. Known inhibitors of LRS, VRS or IRS were used as a positive control of the assay. The IC50 was calculated based on nonlinear regression analysis.

[2] = target: T2, EcoLRS (leucyl-tRNA synthetase from Escherichia coli) (Escherichia coli, UniProt P07813); experiment: aaRS aminoacylation assay (ATP consumption), EcoLRS
T2 construct: made in house; host or cells: Escherichia coli M15
T2 sequence (P07813 whole entry): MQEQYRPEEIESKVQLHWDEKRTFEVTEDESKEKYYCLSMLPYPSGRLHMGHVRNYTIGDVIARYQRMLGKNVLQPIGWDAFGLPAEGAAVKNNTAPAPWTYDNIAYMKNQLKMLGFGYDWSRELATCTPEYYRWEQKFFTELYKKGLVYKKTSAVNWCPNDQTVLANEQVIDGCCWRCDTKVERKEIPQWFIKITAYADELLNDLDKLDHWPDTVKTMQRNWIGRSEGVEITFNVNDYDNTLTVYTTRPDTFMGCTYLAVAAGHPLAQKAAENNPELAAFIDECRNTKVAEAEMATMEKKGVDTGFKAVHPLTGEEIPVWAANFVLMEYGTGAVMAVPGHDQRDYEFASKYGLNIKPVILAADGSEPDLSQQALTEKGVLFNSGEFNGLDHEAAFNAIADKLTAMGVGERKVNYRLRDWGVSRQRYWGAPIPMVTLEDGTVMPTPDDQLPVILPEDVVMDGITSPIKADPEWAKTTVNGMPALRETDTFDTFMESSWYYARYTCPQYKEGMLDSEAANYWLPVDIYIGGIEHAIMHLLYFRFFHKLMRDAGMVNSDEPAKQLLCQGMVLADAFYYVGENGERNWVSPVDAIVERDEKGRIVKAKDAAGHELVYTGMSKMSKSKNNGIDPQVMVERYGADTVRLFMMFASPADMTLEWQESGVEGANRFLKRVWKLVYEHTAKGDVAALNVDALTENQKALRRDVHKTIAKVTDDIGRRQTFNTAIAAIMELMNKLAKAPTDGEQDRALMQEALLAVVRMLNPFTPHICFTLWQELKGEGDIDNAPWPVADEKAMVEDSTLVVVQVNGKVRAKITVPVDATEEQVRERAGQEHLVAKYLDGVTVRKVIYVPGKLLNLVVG
Experimental: as §1, §2, §3, §4, §5, §6, §7

[3] = target: T3, SauVRS (valyl-tRNA synthetase from Staphylococcus aureus) (Staphylococcus aureus, UniProt Q2FXR8); experiment: aaRS aminoacylation assay (ATP consumption), SauVRS; conditions: i.a. = inactive at a concentration below 50 uM
T3 construct: made in house; host or cells: Escherichia coli M15
T3 sequence (Q2FXR8 1-876): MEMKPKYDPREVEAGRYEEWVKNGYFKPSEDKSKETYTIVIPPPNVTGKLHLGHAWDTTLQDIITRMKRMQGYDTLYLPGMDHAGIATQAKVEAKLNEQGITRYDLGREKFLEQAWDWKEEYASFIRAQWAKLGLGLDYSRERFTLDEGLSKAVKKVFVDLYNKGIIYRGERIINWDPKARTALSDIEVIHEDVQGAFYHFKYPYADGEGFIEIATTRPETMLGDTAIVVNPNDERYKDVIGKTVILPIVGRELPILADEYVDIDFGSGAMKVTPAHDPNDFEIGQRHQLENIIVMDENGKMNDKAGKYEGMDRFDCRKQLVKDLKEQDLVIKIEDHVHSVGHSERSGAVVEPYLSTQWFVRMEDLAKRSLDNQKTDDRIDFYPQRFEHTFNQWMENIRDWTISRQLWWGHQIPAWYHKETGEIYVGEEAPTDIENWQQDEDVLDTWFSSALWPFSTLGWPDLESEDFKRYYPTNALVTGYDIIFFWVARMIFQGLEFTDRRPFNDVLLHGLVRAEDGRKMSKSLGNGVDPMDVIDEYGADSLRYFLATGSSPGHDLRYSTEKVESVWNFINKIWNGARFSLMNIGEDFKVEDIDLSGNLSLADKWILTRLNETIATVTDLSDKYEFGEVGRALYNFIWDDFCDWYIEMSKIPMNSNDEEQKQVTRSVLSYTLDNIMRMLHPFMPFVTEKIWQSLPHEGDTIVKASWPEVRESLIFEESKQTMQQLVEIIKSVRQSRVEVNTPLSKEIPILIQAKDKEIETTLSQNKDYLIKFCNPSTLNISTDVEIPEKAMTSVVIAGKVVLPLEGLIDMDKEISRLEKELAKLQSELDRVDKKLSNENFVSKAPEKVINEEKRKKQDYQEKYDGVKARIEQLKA
Experimental: as §1, §2, §3, §4, §5, §6, §7

[4] = i.a. = inactive at a concentration below 50 uM, read-out: IC50 EcoLRS

SMILES	IC50 SauIRS [1]	IC50 [2] [nM]	IC50 SauVRS [3]	IC50 [2, 4] [nM]	IC50 EcoLRS ([2]; i.a. = inactive at a concentration below 50 uM)	% at single point concentration (inhibition ratio), EcoLRS ([2]; @50 μM compound) [%@50]
CCc1cc(-c2cccc(S(=O)(=O)NC(=O)[C@@H](N)CC(C)C)c2)nc(N)n1 [Compound 5.47]	i.a.	11	i.a.	–	–	–
CC(C)C[C@H](N)C(=O)NS(=O)(=O)c1cccc(-c2ccnc(N)c2)c1 [Compound 5.43]	i.a.	2	i.a.	–	–	–
Cc1cc(-c2cccc(S(=O)(=O)NC(=O)[C@@H](N)CC3CC3)c2)nc(N)n1 [Compound 5.30]	i.a	14000	i.a	–	–	–
CC(C)C[C@H](N)C(=O)NS(=O)(=O)c1ccccc1Cl [Compound 5.5]	i.a	121	i.a	–	–	–
CC(C)C[C@H](N)C(=O)NS(=O)(=O)c1ccccc1 [Compound 5.1, (S)-2-amino-4-methyl-N-(phenylsulfonyl)pentanamide hydrochloride]	i.a.	–	i.a.	35	–	–
CC(C)C[C@H](N)C(=O)NS(=O)(=O)c1cccc(-c2ncnc(N)n2)c1 [Compound 5.48]	i.a.	3.4	i.a.	–	–	–
CC(C)C[C@H](N)C(=O)NS(=O)(=O)c1cccc(-c2ccnc(O)n2)c1 [Compound 5.50]	i.a.	63	i.a.	–	–	–
CC(C)C[C@H](N)C(=O)NS(=O)(=O)c1ccc2ccccc2c1 [Compound 5.14]	i.a	–	i.a	65	–	–
CC(C)C[C@H](N)C(=O)NS(=O)(=O)c1cccc2c(N(C)C)cccc12 [Compound 5.16, (S)-2-amino-N-((5-(dimethylamino)naphthalen-1-yl)sulfonyl)-4-methylpentanamide hydrochloride]	i.a	4100	i.a	–	–	–
CC(C)C[C@H](N)C(=O)NS(=O)(=O)c1cccc2cccnc12 [Compound 5.19]	i.a	780	i.a	–	–	–
CC(C)C[C@H](N)C(=O)NS(=O)(=O)c1cccc2ccncc12 [Compound 5.21]	i.a	483	i.a	–	–	–
COc1cc(-c2cccc(S(=O)(=O)NC(=O)[C@@H](N)CC(C)C)c2)nc(N)n1 [Compound 5.36]	i.a.	12	i.a.	–	–	–
Cc1cc(-c2cccc(S(=O)(=O)NC(=O)[C@@H](N)CC3CCCCC3)c2)nc(N)n1 [Compound 5.34]	i.a	–	i.a	–	i.a	–
CC(C)C[C@H](N)C(=O)NS(=O)(=O)c1cccc2cc(C(N)=O)ncc12 [Compound 5.24, 8-(N-(L-Leucyl)sulfamoyl)isoquinoline-3-carboxamide]	i.a	11	i.a	–	–	–
Cc1cc(-c2cccc(S(=O)(=O)NC(=O)[C@@H](N)C3CC3)c2)nc(N)n1 [Compound 5.33]	i.a	–	i.a	–	–	40
CSc1cc(-c2cccc(S(=O)(=O)NC(=O)[C@@H](N)CC(C)C)c2)nc(N)n1 [Compound 5.29]	i.a	21	i.a	–	–	–
CC(C)C[C@H](N)C(=O)NS(=O)(=O)c1cccc(-c2cc(-c3ccccc3)nc(N)n2)c1 [Compound 5.41]	i.a.	220	i.a.	–	–	–
CC(C)C[C@H](N)C(=O)NS(=O)(=O)c1cccc(-c2ccnc(Cl)n2)c1 [Compound 5.49]	i.a.	64	i.a.	–	–	–
CC(C)C[C@H](N)C(=O)NS(=O)(=O)c1cccc2c1OCCC2 [Compound 5.25]	i.a	149	i.a	–	–	–
Cc1cc(-c2cccc(S(=O)(=O)NC(=O)[C@@H](N)CC3CCC3)c2)nc(N)n1 [Compound 5.31]	i.a	6200	i.a	–	–	–
CC(C)C[C@H](N)C(=O)NS(=O)(=O)c1ccccc1F [Compound 5.6]	i.a	233	i.a	–	–	–
CC(C)C[C@H](N)C(=O)NS(=O)(=O)c1cccc(-c2ccccc2)c1 [Compound 5.9]	i.a	–	i.a	32	–	–
CNc1cc(-c2cccc(S(=O)(=O)NC(=O)[C@@H](N)CC(C)C)c2)nc(N)n1 [Compound 5.27]	i.a	51	i.a	–	–	–
CC(C)C[C@H](N)C(=O)NS(=O)(=O)c1cccc2ccccc12 [Compound 5.13]	i.a	59	i.a	–	–	–
CC(C)C[C@H](N)C(=O)NS(=O)(=O)c1cccc(-c2ccnc(N)n2)c1 [Compound 5.37]	i.a.	–	i.a.	54	–	–
CC(C)C[C@H](N)C(=O)NS(=O)(=O)c1cccc(-c2cc(N)ncn2)c1 [Compound 5.46]	i.a.	10	i.a.	–	–	–
Cc1cc(-c2cccc(S(=O)(=O)NC(=O)[C@@H](N)CC(C)C)c2)ncn1 [Compound 5.39]	i.a.	45	i.a.	–	–	–
